The record followed here is patent publication US12157772B2, “Prophylactic agent, onset-suppressing agent or therapeutic agent for progressive immune demyelinating diseases” (NATIONAL CENTER OF NEUROLOGY AND PSYCHIATRY, priority 2016, dated 2024).

For assay [1], the system named is CD4+ T cells, CD19+ B cells, CD19-CD45hi non-B/class II+ antigen-presenting cells infiltrated into the CNS. The assay is described as follows: Eomes and Zbtb20 expression in CNS-infiltrated cells after L-dopa dosing (FACS). Conditions: CNS at day 32 after the induction. Format: in vivo, mouse. The source says: (§1) Into each CD4-Cre/NR4A2^fl/fl mouse in which monophasic EAE had been induced in a similar manner to the above 1.(3), L-dopa or a placebo (DMSO and PBS) was intraperitoneally injected every other day from day 4 after the induction.
Next, the brain and the spinal cord were collected from each mouse at day 32 after the induction; and CD4^+ T cells, CD19^+ B cells, or CD19^−CD45^hi non-B/class II^+ antigen-presenting cells infiltrated into the CNS were sorted by FACS using a FACS ARIA II (manufactured by BD Cytometry Systems, Inc.). The respective sorted cells were stained and analyzed regarding the Eomes and Zbtb20 gene expressions. As antibodies used at the detection were an anti-CD4 antibody (manufactured by Biolegend, Inc.), an anti-Eomes antibody (manufactured by eBioscience, Inc.), an anti-CD19 antibody (manufactured by Biolegend, Inc.), and an anti-Zbtb20 antibody (manufactured by Becton Dickinson, Inc.).

Assay [2] concerns prolactin gene (Prl). As to the kind of experiment: Prolactin gene (Prl) expression in CNS-derived antigen-presenting cells after L-dopa dosing (quantitative real-time PCR). Format: in vivo, mouse. Conditions: CNS-derived B cells and non-B/class II+ antigen-presenting cells; repeated dosing; FIG. 25. How it is done: Next, CD19^+ B cells and CD19^−CD45^hi non-B/class II^+ antigen-presenting cells were separated from the CNS or the spleen of each L-dopa-administered mouse or each intact mouse; and the expression levels of prolactin gene (Prl) in these types of cells were analyzed by using a quantitative real-time PCR assay. As antibodies used at the detection were an anti-CD19 antibody (manufactured by Biolegend, Inc.) and an anti-CD45 antibody (manufactured by Biolegend, Inc.).
On the technique in general: Real-time PCR tracks product formation cycle by cycle.

Assay [3] concerns NR4A2-deficient mouse in which monophasic EAE had been induced. The assay is described as follows: EAE clinical score in NR4A2-deficient mice with induced monophasic EAE. The class given is in vivo.
From the text: as §1

Assay [4] deals with Spleen-derived CD19+ B cells. As to the kind of experiment: Zbtb20 expression in spleen-derived CD19+ B cells cultured with LPS and various cytokines. Format: cell-based, mouse. Conditions: cultured for 24 h in the presence of LPS and cytokine; FIG. 33. How it is done:
Spleen-derived CD19^+ B cells were isolated and purified by sorting by FACS using a FACS ARIA II (manufactured by BD Cytometry Systems, Inc.). The purified B cells were cultured for 24 h in the presence of LPS and in the co-presence or absence of each cytokine designated in FIG. 33(a). After the culturing, the expression levels of Zbtb20 gene in the respective cells were measured. As antibodies used at the detection were an anti-CD19 antibody (manufactured by Biolegend, Inc.) and an anti-Zbtb20 antibody (manufactured by Becton Dickinson, Inc.).

For assay [5], the system named is CD19+ B cells or CD19-CD45hi non-B/class II+ antigen-presenting cells. As to conditions: CD19+ B cells and CD19-CD45hi non-B class II+ cells; cultured 24, 48 or 96 h with dopamine; FIG. 22. The procedure: CD19^+ B cells or CD19^−CD45^hi non-B/class II^+ antigen-presenting cells were purified from each mouse with the late-stage EAE pathology by sorting by FACS. The respective purified cells were cultured for 24, 48, or 96 h in the absence of dopamine or in the presence of a specific amount of dopamine. Next, the cultured cells were recovered and the prolactin gene (Prl) and Zbtb20 gene expression levels were analyzed by using a quantitative real-time PCR assay.

Assay [6] concerns Spleen-derived CD226+ Th cells. The assay is described as follows: Prolactin addition and Eomes protein expression in spleen-derived CD226+ Th cells (FACS). Format: cell-based, mouse. As to conditions: cultured for 48 h in the presence of prolactin; FIG. 16. How it is done: Spleen-derived CD226^+ Th cells were cultured for 8 h or 48 h in the absence or presence of prolactin. After the culturing, the CD226^+ Th cells were stained with an anti-CD226 antibody and an anti-Eomes antibody, and a FACS CANTO II (manufactured by BD Cytometry Systems, Inc.) was used to analyze CD226^+Eomes^+ T cells, CD226^+ Eomes^− T cells, and CD226^− T cells. As the antibodies used during the analysis were an anti-CD226 antibody (manufactured by Biolegend, Inc.) and an anti-Eomes antibody (manufactured by Biolegend, Inc.).

Assay [7] has as its system Spleen-derived Th cells. The assay is described as follows: Prolactin addition and Eomes gene expression in spleen-derived Th cells (quantitative real-time PCR). Format: cell-based, mouse. As to conditions: cultured 8 h; recombinant prolactin at low and high concentration; FIG. 15. The procedure: Spleen-derived Th cells of each intact mouse were cultured for 8 h in the absence or presence of recombinant prolactin. After the culturing, total RNA was extracted from the Th cells. A first strand cDNA synthesis kit (manufactured by Takara Bio Inc.) was used to synthesize cDNA from the total RNA obtained. A Light Cycler instrument was used under conditions using a Light Cycler-Fast Start DNA Master SYBR Green I kit (manufactured by Roche Diagnostics, Inc.) or an ABI 7300 real-time PCR instrument was used under conditions using a Power SYBR Green Master mix (manufactured by Applied Biosystems, Inc.) to perform a quantitative real-time PCR assay by using commercially available primers (QuantiTect Primer Assay, QT01074332; manufactured by Qiagen, Inc.). The Eomes gene expression levels were corrected based on the expression level of a housekeeping gene GAPDH.

The test system of assay [8] is Spleen-derived CD226+CD4+ T cells. The assay is described as follows: Culturing of spleen-derived CD226+CD4+ T cells in co-presence of prolactin, Eomes expression (flow cytometer / quantitative real-time PCR). The class given is cell-based, mouse. The procedure: Spleen-derived CD226^+CD4^+ T cells collected from each intact wild-type B6 mouse were cultured for 4 h or 8 h in the absence of prolactin or in the presence of each specific amount of prolactin. The Eomes expression levels in the respective cells after the culturing were measured by using a flow cytometer or a quantitative real-time PCR assay. As antibodies used at the detection were an anti-CD4 antibody (manufactured by Biolegend, Inc.) and an anti-Eomes antibody (manufactured by eBioscience, Inc.).
(In general: In flow cytometry, cells or beads pass a laser one at a time.)

For `N[C@@H](Cc1ccc(O)c(O)c1)C(=O)O` [L-dopa, L-3,4-dihydroxyphenylalanine], the “percentage of CD4+Eomes+ T cells in the CD4+ T cells” value in assay [1] (FIG. 24(a)) is recorded as “decrease markedly”. The “percentage of Zbtb20+ cells in the CD19+ B cells” value in assay [1] (FIG. 24(b)) was “decrease”. For the same molecule, the “percentage of Zbtb20+ cells in the CD19-CD45hi non-B/class II+ antigen-presenting cells” value in assay [1] (FIG. 24(c)) is on record as “decrease”. In addition, the “expression levels of prolactin gene” value in assay [2] was “decrease”. Besides, the “cumulative EAE scores” value in assay [3] (intraperitoneally every other day from day 4, right graph of FIG. 23) is reported as “improvement”. The EAE scores result in assay [3] (intraperitoneally every other day from day 4 after the induction, FIG. 23) is given as “improve markedly”.

IFNα: in assay [4], the “increase in the expression of Zbtb20 gene” value is recorded as “the most remarkable”.

For the molecule `NCCc1ccc(O)c(O)c1` [dopamine], in assay [5], the “Zbtb20 gene expression levels” value was “decreased markedly” and the “prolactin gene expression levels” value was “decreased markedly”.

B1: prolactin: recombinant prolactin added to Th cell cultures (protein, UniProt P01236 29-227, looked up)
Prolactin: LPICPGGAARCQVTLRDLFDRAVVLSHYIHNLSSEMFSEFDKRYTHGRGFITKAINSCHTSSLATPEDKEQAQQMNQKDFLSLIVSILRSWNEPLYHLVTEVRGMQEAPEAILSKAVEIEEQTKRLLEGMELIVSQVHPETKENEIYPVWSGLPSLQMADEESRLSAYYNLLHCLRRDSHKIDNYLKLLKCRIIHNNNC
For the molecule B1, the Eomes expression levels entry in assay [6] is given as “increased more markedly”. In addition, the “relative expression level of Eomes relative to that of a housekeeping gene” value in assay [7] is “increased in a prolactin concentration-dependent fashion”. The “Eomes gene expression level” value in assay [8] (prolactin at 30 ng/mL, FIG. 8(b)) is recorded as “increased”. For the same molecule, the “percentage of CD4+Eomes+ T cells” value in assay [8] (prolactin at 30 or 100 ng/mL, cultured 4 h or 8 h, FIG. 7, 8(a)) is recorded as “increased markedly”.
